In ChEMBL document CHEMBL3867470, “Synthesis and biological evaluation of heteroaryl styryl sulfone derivatives as anticancer agents” (Bioorg Med Chem Lett, 2016):
Activity calls are given as the source filed them. The calls are words filed in the database; no cut-off is given here.

Experiments:
A2780 [1] = experiment: Induction of apoptosis in human A2780 cells assessed as late apoptotic cells at GI50 measured after 24 hrs by Annexin V/propidium iodide staining-based FACS analysis (reference value: 4.23%); type: functional
[2] = Cytotoxicity against human MRC5 cells assessed as reduction in cell viability measured after 72 hrs by MTT assay; type: toxicity, cell-based
[3] = Antiproliferative activity against human 22Rv1 cells measured after 72 hrs by MTT assay; type: functional, CWR22R; conditions: 22Rv1, 72 h
[4] = Antiproliferative activity against human LNCAP cells measured after 72 hrs by MTT assay; type: functional
A2780 [5] = experiment: Induction of apoptosis in human A2780 cells assessed as necrotic cells at GI50 measured after 24 hrs by Annexin V/propidium iodide staining-based FACS analysis (reference value: 0.34%); type: functional
[6] = Cell cycle arrest in human A2780 cells assessed as accumulation at G1-phase at 5 times GI50 measured after 24 hrs by propidium iodide staining-based FACS analysis (reference value: 53%); type: functional
A2780 [7] = experiment: Induction of apoptosis in human A2780 cells assessed as early apoptotic cells at GI50 measured after 24 hrs by Annexin V/propidium iodide staining-based FACS analysis (reference value: 2.81%); type: functional
[8] = Antiproliferative activity against human A2780 cells measured after 72 hrs by MTT assay; type: functional; conditions: A2780, 72 h
[9] = Antiproliferative activity against human DaOY cells measured after 72 hrs by MTT assay; type: functional
[10] = Cell cycle arrest in human A2780 cells assessed as accumulation at S-phase at 5 times GI50 measured after 24 hrs by propidium iodide staining-based FACS analysis (reference value: 19%); type: functional
[11] = Cell cycle arrest in human A2780 cells assessed as accumulation at Sub-G1 phase at GI50 measured after 24 hrs by propidium iodide staining-based FACS analysis (reference value: 2%); type: functional
[12] = Antiproliferative activity against human HCT116 cells measured after 72 hrs by MTT assay; type: functional; conditions: HCT-116, 72 h
[13] = Antiproliferative activity against human KM12 cells measured after 72 hrs by MTT assay; type: functional; conditions: KM12, 72 h
A2780 [14] = experiment: Induction of apoptosis in human A2780 cells assessed as necrotic cells at 5 times GI50 measured after 24 hrs by Annexin V/propidium iodide staining-based FACS analysis (reference value: 0.34%); type: functional
[15] = biological target: Serine/threonine-protein kinase PLK1 (Homo sapiens) (UniProt P53350); experiment: Inhibition of Plk1 in human A2780 cells assessed as reduction in CDC25C phosphorylation at Ser198 residue at 300 to 3000 nM measured after 24 hrs by Western blot analysis; type: cell-based
[16] = Antiproliferative activity against human DU145 cells measured after 72 hrs by MTT assay; type: functional; conditions: DU-145, 72 h
A2780 [17] = experiment: Induction of apoptosis in human A2780 cells assessed as viable cells at 5 times GI50 measured after 24 hrs by Annexin V/propidium iodide staining-based FACS analysis (reference value: 92.6%); type: functional
[18] = Antiproliferative activity against human HT-29 cells measured after 72 hrs by MTT assay; type: functional; conditions: HT-29, 72 h
A2780 [19] = experiment: Induction of apoptosis in human A2780 cells assessed as downregulation of Mcl1 level at 300 to 3000 nM measured after 24 hrs by Western blot analysis; type: functional, cell-based
[20] = Cell cycle arrest in human A2780 cells assessed as accumulation at S-phase at GI50 measured after 24 hrs by propidium iodide staining-based FACS analysis (reference value: 19%); type: functional
[21] = Cell cycle arrest in human A2780 cells assessed as accumulation at G2/M-phase at 5 times GI50 measured after 24 hrs by propidium iodide staining-based FACS analysis (reference value: 26%); type: functional
[22] = Antiproliferative activity against human COLO205 cells measured after 72 hrs by MTT assay; type: functional; conditions: COLO 205, 72 h
A2780 [23] = experiment: Induction of apoptosis in human A2780 cells assessed as early apoptotic cells at 5 times GI50 measured after 24 hrs by Annexin V/propidium iodide staining-based FACS analysis (reference value: 2.81%); type: functional
[24] = Antiproliferative activity against human C4-2B cells measured after 72 hrs by MTT assay; type: functional; conditions: LNCaP C4-2B
[25] = Antiproliferative activity against human MCF7 cells measured after 72 hrs by MTT assay; type: functional; conditions: MCF7, 72 h
[26] = Antiproliferative activity against human PANC1 cells measured after 72 hrs by MTT assay; type: functional; conditions: PANC-1, 72 h
[27] = Antiproliferative activity against human PC3 cells measured after 72 hrs by MTT assay; type: functional; conditions: PC-3, 72 h
[28] = Cell cycle arrest in human A2780 cells assessed as accumulation at Sub-G1 phase at 5 times GI50 measured after 24 hrs by propidium iodide staining-based FACS analysis (reference value: 2%); type: functional
[29] = Cell cycle arrest in human A2780 cells assessed as accumulation at G1-phase at GI50 measured after 24 hrs by propidium iodide staining-based FACS analysis (reference value: 53%); type: functional
[30] = Cell cycle arrest in human A2780 cells assessed as accumulation at G2/M-phase at GI50 measured after 24 hrs by propidium iodide staining-based FACS analysis (reference value: 26%); type: functional
[31] = Cytotoxicity against human WI38 cells assessed as reduction in cell viability measured after 72 hrs by MTT assay; type: toxicity, cell-based, WI-38
A2780 [32] = experiment: Induction of apoptosis in human A2780 cells assessed as late apoptotic cells at 5 times GI50 measured after 24 hrs by Annexin V/propidium iodide staining-based FACS analysis (reference value: 4.23%); type: functional
A2780 [33] = experiment: Induction of apoptosis in human A2780 cells assessed as viable cells at GI50 measured after 24 hrs by Annexin V/propidium iodide staining-based FACS analysis (reference value: 92.6%); type: functional
A2780 [34] = experiment: Induction of apoptosis in human A2780 cells assessed as cleaved PARP level at 300 to 3000 nM measured after 24 hrs by Western blot analysis; type: functional, cell-based
[35] = biological target: Serine/threonine-protein kinase PLK1 (Homo sapiens) (UniProt P53350); conditions: A2780, 200 to 1000 nM
Description: Inhibition of Plk1 in human A2780 cells assessed as reduction in CDC25C phosphorylation at Ser198 residue at 200 to 1000 nM measured after 24 hrs by Western blot analysis

A2780 [36] = experiment: Induction of apoptosis in human A2780 cells assessed as downregulation of Mcl1 level at 200 to 1000 nM measured after 24 hrs by Western blot analysis; type: functional, cell-based
A2780 [37] = experiment: Induction of apoptosis in human A2780 cells assessed as cleaved PARP level at 200 to 1000 nM measured after 24 hrs by Western blot analysis; type: functional, cell-based

Sequence of Serine/threonine-protein kinase PLK1 (Homo sapiens) (P53350 whole entry): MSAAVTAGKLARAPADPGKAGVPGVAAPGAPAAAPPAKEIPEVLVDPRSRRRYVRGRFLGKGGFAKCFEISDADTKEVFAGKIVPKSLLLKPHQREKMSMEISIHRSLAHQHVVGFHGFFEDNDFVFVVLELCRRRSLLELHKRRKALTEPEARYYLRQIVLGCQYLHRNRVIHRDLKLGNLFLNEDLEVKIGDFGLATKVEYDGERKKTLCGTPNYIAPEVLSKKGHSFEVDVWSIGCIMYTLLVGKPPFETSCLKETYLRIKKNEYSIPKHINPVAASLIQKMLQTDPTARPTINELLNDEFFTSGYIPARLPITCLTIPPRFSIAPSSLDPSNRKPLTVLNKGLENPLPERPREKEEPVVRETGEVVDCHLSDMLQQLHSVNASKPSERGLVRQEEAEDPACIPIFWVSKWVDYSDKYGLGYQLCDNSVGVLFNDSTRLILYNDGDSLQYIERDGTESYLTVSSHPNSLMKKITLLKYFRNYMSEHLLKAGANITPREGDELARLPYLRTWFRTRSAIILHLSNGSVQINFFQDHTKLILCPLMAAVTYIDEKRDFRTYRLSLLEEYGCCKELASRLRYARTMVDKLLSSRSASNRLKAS

With CCOc1ccc(NS(=O)(=O)/C=C/c2c(OC)cc(OC)cc2OC)cc1 the Activity (A2780 [1]) was 5.92%, the GI50 at 72 h [2] was greater than 10000 nM and the GI50 [3] was 530 nM. The GI50 [4] was 520 nM, the Activity (A2780 [5]) was 0.78% and the Activity [6] was 21%. For the same molecule, the Activity (A2780 [7]) was 10.03%, the GI50 [8] was 310 nM and the GI50 [9] was 340 nM. It also gave an Activity [10] of 16%, an Activity [11] of 5% and a GI50 [12] of 350 nM. The GI50 [13] was 340 nM, the Activity (A2780 [14]) was 1.17% and the inhibition [15] was “Active”. For the same molecule, the GI50 [16] was 520 nM, the Activity (A2780 [17]) was 70.89% and the GI50 [18] was 580 nM. The Activity (A2780 [19]) was “Active”, the Activity [20] was 15% and the Activity [21] was 44%. It also gave a GI50 [22] of 590 nM, an Activity (A2780 [23]) of 20.22% and a GI50 [24] of 450 nM. For the same molecule, the GI50 [25] was 530 nM, the GI50 [26] was 300 nM and the GI50 [27] was 600 nM. It also gave an Activity [28] of 19%, an Activity [29] of 50% and an Activity [30] of 29%. For the same molecule, the GI50 at 72 h [31] was greater than 10000 nM, the Activity (A2780 [32]) was 7.57% and the Activity (A2780 [33]) was 83.21%. The Activity (A2780 [34]) was “Active”.
Molecule COc1cc(OC)c(/C=C/S(=O)(=O)Cc2cnc(OC)cn2)c(OC)c1 has a GI50 [8] of 490 nM and a GI50 [12] of 950 nM.
CNc1ncc(OC)c(CS(=O)(=O)/C=C/c2c(OC)cc(OC)cc2OC)n1 showed a GI50 [8] of 7540 nM and a GI50 [12] greater than 10000 nM.
Molecule COc1cc(OC)c(/C=C/S(=O)(=O)Cc2cnc(Cl)cn2)c(OC)c1 has a GI50 [8] of 4760 nM and a GI50 [12] greater than 10000 nM.
With COc1cc(OC)c(/C=C/S(=O)(=O)Nc2cnc(Cl)cn2)c(OC)c1 the GI50 [8] was greater than 10000 nM and the GI50 [12] was greater than 10000 nM.
CCOc1cc(OC)cc(OC)c1/C=C/S(=O)(=O)Nc1ccc(OC)nc1 gave a GI50 [8] of 470 nM and a GI50 [12] of 420 nM.
Work on COc1cc(OC)c(/C=C/S(=O)(=O)Nc2ccc(Cl)cc2)c(OC)c1 yielded a GI50 [8] greater than 10000 nM and a GI50 [12] greater than 10000 nM.
Work on COc1cc(OC)c(/C=C/S(=O)(=O)Cc2nc(Cl)ncc2OC)c(OC)c1 yielded a GI50 [8] greater than 10000 nM and a GI50 [12] greater than 10000 nM.
In the case of COc1cc(OC)c(/C=C/S(=O)(=O)Cc2ccc(OC)c(NCC(=O)[O-])c2)c(OC)c1.[Na+] [RIGOSERTIB SODIUM], the Activity (A2780 [1]) was 2.75%, the Activity (A2780 [5]) was 0.25% and the Activity [6] was 20%. The Activity (A2780 [7]) was 5.16%, the GI50 [8] was 40 nM and the Activity [10] was 17%. For the same molecule, the Activity [11] was 5%, the GI50 [12] was 60 nM and the inhibition [35] was “Active”. For the same molecule, the Activity (A2780 [14]) was 0.29%, the Activity (A2780 [36]) was “Active” and the Activity (A2780 [17]) was 69.9%. For the same molecule, the Activity (A2780 [37]) was “Active”, the Activity [20] was 19% and the Activity [21] was 33%. It also gave an Activity (A2780 [23]) of 27.41%, an Activity [28] of 30% and an Activity [29] of 48%. For the same molecule, the Activity [30] was 28%, the Activity (A2780 [32]) was 2.25% and the Activity (A2780 [33]) was 91.82%.
With COc1cc(OC)c(/C=C/S(=O)(=O)Cc2cnc(OC)c(OC)c2)c(OC)c1 the GI50 [8] was 930 nM and the GI50 [12] was 2810 nM.
With COc1cc(OC)c(/C=C/S(=O)(=O)Cc2nc(N)ncc2OC)c(OC)c1 the GI50 [8] was greater than 10000 nM and the GI50 [12] was greater than 10000 nM.
CCOc1cnc(CS(=O)(=O)/C=C/c2c(OC)cc(OC)cc2OC)cn1 showed a GI50 [8] of 540 nM and a GI50 [12] of 1280 nM.
In the case of COc1cc(OC)c(/C=C/S(=O)(=O)Nc2ccc(OC)nc2)c(OC)c1, the GI50 [8] was 380 nM and the GI50 [12] was 1000 nM.
With COc1ccc(NS(=O)(=O)/C=C/c2c(OC)cc(OC)cc2OC)cc1 the GI50 [8] was 10 nM and the GI50 [12] was 10 nM.
Molecule COc1cc(OC)c(/C=C/S(=O)(=O)Nc2ccc(Cl)nc2)c(OC)c1 has a GI50 [8] of 2600 nM and a GI50 [12] of 5640 nM.
